Patent publication US11446287B2, “Compounds and methods for EP300 or CBP modulation and indications therefor” (Opna Immuno-Oncology SA, priority 2019, dated 2022)

These compounds were tested against T1, Recombinant human BRD4 containing dual bromodomains (BRD4-BD12 (1-477)) (Homo sapiens, UniProt O60885) (assay: BRD4 Alphascreen binding assay).
T1 construct: Recombinant human BRD4 containing dual bromodomains (BRD4-BD12 (1-477)); made in house; host or cells: E. coli BL21-CodonPlus (DE3), modified pET vector
Protocol: BRD4 Alphascreen Binding Assay
Binding of compounds of Formula (I) with BRD4 was assessed using Alphascreen binding assay. The inhibition of the interaction between BRD4 and its acetylated target protein was measured quantitatively using recombinant BRD4 protein, an acetylated Histone 4 peptide, and AlphaScreen™ technology. In absence of inhibition of the BRD4 protein bound to AlphaScreen™ nickel chelate acceptor beads can interact with the acetylated Histone 4 peptide which was immobilized by the AlphaScreen™ Streptavidin coated beads. This interaction brings donor and acceptor beads in proximity. The close proximity allows the singlet oxygen produced by laser excitation of the donor beads to reach the acceptor beads and generate a luminescence signal. BRD4 inhibitors result in a decrease in the proximity signal through an inhibition of the BRD4—acetylated peptide interaction.
Recombinant human BRD4 containing dual bromodomains (BRD4-BD12 (1-477)) was prepared and purified as described in protein expression and purification session. The peptide was human Histone H41-21K5AcK8AcK12AcK16Ac-Biotin (Anaspec CA, USA).
Protocol for BRD4 assay: All components are prepared in buffer composed of 50 mM HEPES pH 7.5, 50 mM NaCl, 0.01% BSA, 0.01% Triton X-100, 2 mM DTT. Test compounds and DMSO vehicle are diluted 1:50 in buffer and a 4 μL volume was transferred to an Alphaplate. 5.5 μL of Bromodomain protein and 5.5 μL of peptide are added to wells containing 4 μL of various concentrations of test compounds of Formula (I) or DMSO vehicle in an Alphaplate (PerkinElmer GA, USA) and incubated for 1 hour at room temperature. 5 μL donor and acceptor bead mixture was then added with final concentrations of 7.5 μg/ml. 30 minutes after bead addition, Alpha signal was read on the Envision spectrometer (λEx 680 nm, λEm 520-620 nm). Final concentrations of bromodomain proteins and peptide are as shown below.
All data were normalized to the mean of 16 high and 16 low control wells on each plate. A four parameter curve fit of the following formula was then applied: Y=A+((B−A)/(1+((C/x)^D))) Where ‘A’ is the minimum, ‘B’ is the maximum, ‘C’ is the IC50 and ‘D’ is the Hill slope. Protein Expression and Purification
Recombinant human BRD4 containing dual bromodomains (BRD4-BD12 (1-477)) was expressed in E. coli cells (in a modified pET vector) with an N-terminal six-His tag and purified using a combination of both IMAC (Ni-affinity) and size exclusion chromatography steps.
Recombinant BRD4 was expressed using the E. coli strain BL21-CodonPlus (DE3) (Agilent Technologies CA, USA). Cells were grown in Terrific Broth (TB) media to an OD600 of 2.0 at 37° C. at which temperature was reduced to 18° C., protein was induced with 0.1 mM isopropyl-β-D-thiogalactopyranoside (“IPTG”) for 12-18 hours and harvested by centrifugation at 8000×g for 20 minutes. Cells were re-suspended in 40 mM Tris-HCl pH 8.0, 0.5 M NaCl, 25 mM Imidazole, 5% glycerol, 1/200 vol. Protease Inhibitor Cocktail Set III (Calbiochem), 5 mM beta-mercaptoethanol (“BME”), 0.5 mg/mL Lysozyme, and 0.5 mg/mL DNaseI, incubated on ice for 30 minutes and lysed with a cell disruptor (MicroFluidics MA, USA). The lysate was clarified by centrifugation at 20,000×g for 2 hours. The protein was captured with Ni-NTA resin (Life Technologies, USA). Contaminating proteins were washed off with 40 mM Tris-HCl pH 8.0, 0.5 M NaCl, 25 mM Imidazole, 5% glycerol, and 5 mM BME. Following 3× wash steps, protein was eluted step wise into wash buffer containing 50, 100, 150, 500 mM Imidazole. The protein was further purified using Gel Filtration column 16/60 Superdex 200 (GE Biosciences NJ, USA) in 10 mM HEPES pH 8.0, 150 mM NaCl, and 5 mM DTT. Glycerol was added to a final concentration of 12% and the protein was aliquoted and flash-frozen in liquid Nitrogen.
Compound `COc1cc(C(=O)O)cc(OC)c1-c1cn([C@@H](C)c2ccccn2)c2ncc(-c3c(C)noc3C)cc12` [P-0103, (S)-4-(5-(3,5-dimethylisoxazol-4-yl)-1-(1-(pyridin-2-yl)ethyl)-1H-pyrrolo[2,3-b]pyridin-3-yl)-3,5-dimethoxybenzoic acid] has an IC50 of 8 to 1000 µM.
`COc1cc(C(=O)O)cc(O)c1-c1cn([C@@H](C)c2ccccn2)c2ncc(-c3c(C)noc3C)cc12` [P-0144, (S)-4-(5-(3,5-dimethylisoxazol-4-yl)-1-(1-(pyridin-2-yl)ethyl)-1H-pyrrolo[2,3-b]pyridin-3-yl)-3-hydroxy-5-methoxybenzoic acid] showed an IC50 of 8 to 1000 µM.
`Cc1noc(C)c1-c1cnc2c(C(=O)c3cccc(OC(F)F)c3)cn(-c3c(Cl)cc(C(=O)O)cc3Cl)c2c1` [P-0129, 3,5-dichloro-4-(3-(3-(difluoromethoxy)benzoyl)-6-(3,5-dimethylisoxazol-4-yl)-1H-pyrrolo[3,2-b]pyridin-1-yl)benzoic acid] showed an IC50 of 1 to 8 µM.
In the case of `Cc1noc(C)c1-c1cnc2c(-c3ccc(C(=O)O)cc3)c(C(F)(F)F)n([C@@H](C)c3ccccn3)c2c1` [P-0154, (S)-4-(6-(3,5-dimethylisoxazol-4-yl)-1-(1-(pyridin-2-yl)ethyl)-2-(trifluoromethyl)-1H-pyrrolo[3,2-b]pyridin-3-yl)benzoic acid], the IC50 is reported as 0.0001 to 1 µM.
For `Cc1noc(C)c1-c1cnc2c(-c3cc(C(=O)O)ccc3Cl)cn(C(C)(c3ccccn3)c3ccccn3)c2c1` [P-0164, 4-chloro-3-(1-(1,1-di(pyridin-2-yl)ethyl)-6-(3,5-dimethylisoxazol-4-yl)-1H-pyrrolo[3,2-b]pyridin-3-yl)benzoic acid], the IC50 was 1 to 8 µM.
With `Cc1noc(C)c1-c1cnc2c(c1)c(-c1nccc(C(=O)O)n1)cn2[C@@H](C)c1ccccn1` [P-0107, (S)-2-(5-(3,5-dimethylisoxazol-4-yl)-1-(1-(pyridin-2-yl)ethyl)-1H-pyrrolo[2,3-b]pyridin-3-yl)pyrimidine-4-carboxylic acid] the IC50 was 8 to 1000 µM.
With `Cc1noc(C)c1-c1cnc2c(-c3cccc(C(=O)O)c3)c(C(F)(F)F)n([C@@H](C)c3ccccn3)c2c1` [P-0162, (S)-3-(6-(3,5-dimethylisoxazol-4-yl)-1-(1-(pyridin-2-yl)ethyl)-2-(trifluoromethyl)-1H-pyrrolo[3,2-b]pyridin-3-yl)benzoic acid] the IC50 was 8 to 1000 µM.
With `Cc1noc(C)c1-c1cnc2c(CC3CCC3)cn(-c3c(OC(C)C)cc(C(=O)O)cc3OC(C)C)c2c1` [P-0111, 4-(3-(cyclobutylmethyl)-6-(3,5-dimethylisoxazol-4-yl)-1H-pyrrolo[3,2-b]pyridin-1-yl)-3,5-diisopropoxybenzoic acid] the IC50 was 8 to 1000 µM.
With `Cc1noc(C)c1-c1cnc2c(c1)c(-c1ccc(C(=O)O)cc1OC(F)(F)F)cn2C(C1CC1)C1CC1` [P-0156, 4-(1-(dicyclopropylmethyl)-5-(3,5-dimethylisoxazol-4-yl)-1H-pyrrolo[2,3-b]pyridin-3-yl)-3-(trifluoromethoxy)benzoic acid] the IC50 was 8 to 1000 µM.
Compound `Cc1noc(C)c1-c1cnc2c(Cc3cccc(OCc4ccccc4)c3)cn(-c3c(Cl)cc(C(=O)O)cc3Cl)c2c1` [P-0132, 4-(3-(3-(benzyloxy)benzyl)-6-(3,5-dimethylisoxazol-4-yl)-1H-pyrrolo[3,2-b]pyridin-1-yl)-3,5-dichlorobenzoic acid] has an IC50 of 8 to 1000 µM.
For `Cc1noc(C)c1-c1cnc2c(-c3ccccc3C#N)cn(C(C)(c3ccccn3)c3ccccn3)c2c1` [P-0169, 2-(1-(1,1-di(pyridin-2-yl)ethyl)-6-(3,5-dimethylisoxazol-4-yl)-1H-pyrrolo[3,2-b]pyridin-3-yl)benzonitrile], the IC50 was 0.0001 to 1 µM.
Work on `CCOc1cc(C(=O)O)cc(OCC)c1-n1cc(-c2ccccc2)c2ncc(-c3c(C)noc3C)cc21` [P-0168, 4-(6-(3,5-dimethylisoxazol-4-yl)-3-phenyl-1H-pyrrolo[3,2-b]pyridin-1-yl)-3,5-diethoxybenzoic acid] yielded an IC50 of 1 to 8 µM.
Work on `CCOc1cc(C(=O)O)cc(OCC)c1-n1cc(CC2CCC2)c2ncc(-c3c(C)noc3C)cc21` [P-0109, 4-(3-(cyclobutylmethyl)-6-(3,5-dimethylisoxazol-4-yl)-1H-pyrrolo[3,2-b]pyridin-1-yl)-3,5-diethoxybenzoic acid] yielded an IC50 of 1 to 8 µM.
`Cc1noc(C)c1-c1cnc2c(CC3CCC3)cn(-c3ccc([N+](=O)[O-])cc3F)c2c1` [P-0130, 4-(3-(cyclobutylmethyl)-1-(2-fluoro-4-nitrophenyl)-1H-pyrrolo[3,2-b]pyridin-6-yl)-3,5-dimethylisoxazole] gave an IC50 of 8 to 1000 µM.
For `CCOc1cc(C(=O)O)cc(OCC)c1-c1cn([C@@H](C)c2ccccn2)c2ncc(-c3c(C)noc3C)cc12` [P-0147, (S)-4-(5-(3,5-dimethylisoxazol-4-yl)-1-(1-(pyridin-2-yl)ethyl)-1H-pyrrolo[2,3-b]pyridin-3-yl)-3,5-diethoxybenzoic acid], the IC50 was 8 to 1000 µM.
Compound `Cc1noc(C)c1-c1cnc2c(c1)c(-c1cccc(C(=O)O)n1)cn2C(C)c1ccccn1` (stereo not drawn) [P-0122, 6-(5-(3,5-dimethylisoxazol-4-yl)-1-(1-(pyridin-2-yl)ethyl)-1H-pyrrolo[2,3-b]pyridin-3-yl)picolinic acid] has an IC50 of 8 to 1000 µM.
Work on `Cc1noc(C)c1-c1cnc2c(-c3ccccc3Cl)cn(C(C)(c3ccccn3)c3ccccn3)c2c1` [P-0155, 4-(3-(2-chloropheny1)-1-(1,1-di(pyridin-2-yl)ethyl)-1H-pyrrolo[3,2-b]pyridin-6-yl)-3,5-dimethylisoxazole] yielded an IC50 of 0.0001 to 1 µM.
`Cc1noc(C)c1-c1cnc2c(c1)c(-c1cc(C(=O)O)ccn1)cn2C(C)c1ccccn1` (stereo not drawn) [P-0124, 2-(5-(3,5-dimethylisoxazol-4-yl)-1-(1-(pyridin-2-yl)ethyl)-1H-pyrrolo[2,3-b]pyridin-3-yl)isonicotinic acid] showed an IC50 of 8 to 1000 µM.
In the case of `Cc1noc(C)c1-c1cnc2c(c1)c(-c1cccc(C(=O)O)c1)cn2CC1(C)COC1` [P-0102, 3-(5-(3,5-dimethylisoxazol-4-yl)-1-((3-methyloxetan-3-yl)methyl)-1H-pyrrolo[2,3-b]pyridin-3-yl)benzoic acid], the IC50 is reported as 8 to 1000 µM.
Compound `Cc1ccc(S(=O)(=O)n2cc(-c3ccc(C(=O)O)cc3)c3cc(-c4c(C)noc4C)cnc32)cc1` [P-0006, 4-(5-(3,5-dimethylisoxazol-4-yl)-1-tosyl-1H-pyrrolo[2,3-b]pyridin-3-yl)benzoic acid] has an IC50 of 8 to 1000 µM.
In the case of `CCCOc1cc(C(=O)O)cc(OCCC)c1-c1cn([C@@H](C)c2ccccn2)c2ncc(-c3c(C)noc3C)cc12` [P-0117, (S)-4-(5-(3,5-dimethylisoxazol-4-yl)-1-(1-(pyridin-2-yl)ethyl)-1H-pyrrolo[2,3-b]pyridin-3-yl)-3,5-dipropoxybenzoic acid], the IC50 is reported as 1 to 8 µM.
For `COc1cc(C(=O)O)cc(OCc2ccccc2)c1-c1cn([C@@H](C)c2ccccn2)c2ncc(-c3c(C)noc3C)cc12` [P-0135, (S)-3-(benzyloxy)-4-(5-(3,5-dimethylisoxazol-4-yl)-1-(1-(pyridin-2-yl)ethyl)-1H-pyrrolo[2,3-b]pyridin-3-yl)-5-methoxybenzoic acid], the IC50 was 8 to 1000 µM.
For `Cc1noc(C)c1-c1cnc2c(-c3cc(C(=O)O)ccc3Cl)cn(C(C)c3ccccc3)c2c1` (stereo not drawn) [P-0141, 4-chloro-3-(6-(3,5-dimethylisoxazol-4-yl)-1-(1-phenylethyl)-1H-pyrrolo[3,2-b]pyridin-3-yl)benzoic acid], the IC50 was 8 to 1000 µM.
For `Cc1noc(C)c1-c1cnc2c(c1)c(-c1ccc(C(=O)O)cc1)cn2C(c1ccccn1)C1CC1` (stereo not drawn) [P-0007, 4-(1-(cyclopropyl(pyridin-2-yl)methyl)-5-(3,5-dimethylisoxazol-4-yl)-1H-pyrrolo[2,3-b]pyridin-3-yl)benzoic acid], the IC50 was 8 to 1000 µM.
